Reference: PubChem BioAssay AID1963423 (Molecular Pharmacology Branch, DTP, NCI, 2024)

Test system: 439559-082-T-J2-PDC complex spheroid growth
Assay: Anticancer human tumor 439559-082-T-J2-PDC patient-derived colon adenocarcinoma cell line growth inhibition [Asc]
Settings: for IC50: curve of first compound; for viability, T/C: stronger effect = lower value
Summary of the method: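 Tumor cells were grown as complex spheroids with human endothelial cells (HUVEC) and human mesenchymal stem cells as stroma. Agents were tested alone and in combination, in half-log steps down from the clinical Cmax, or from 10 microM where Cmax was unknown.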

[1] = second compound 0.00316 µM, first compound 0.00316 µM
[2] = second compound 0.00316 µM, first compound 0.01 µM
[3] = second compound 0.00316 µM, first compound 0.0316 µM
[4] = second compound 0.00316 µM, first compound 0.1 µM
[5] = second compound 0.01 µM, first compound 0.00316 µM
[6] = second compound 0.01 µM, first compound 0.01 µM
[7] = second compound 0.01 µM, first compound 0.0316 µM
[8] = second compound 0.01 µM, first compound 0.1 µM
[9] = second compound 0.0316 µM, first compound 0.00316 µM
[10] = second compound 0.0316 µM, first compound 0.01 µM
[11] = second compound 0.0316 µM, first compound 0.0316 µM
[12] = second compound 0.0316 µM, first compound 0.1 µM
[13] = second compound 0.1 µM, first compound 0.00316 µM
[14] = second compound 0.1 µM, first compound 0.01 µM
[15] = second compound 0.1 µM, first compound 0.0316 µM
[16] = second compound 0.1 µM, first compound 0.1 µM
[17] = second compound 0.316 µM, first compound 0.00316 µM
[18] = second compound 0.316 µM, first compound 0.01 µM
[19] = second compound 0.316 µM, first compound 0.0316 µM
[20] = second compound 0.316 µM, first compound 0.1 µM
[21] = second compound 1 µM, first compound 0.00316 µM
[22] = second compound 1 µM, first compound 0.01 µM
[23] = second compound 1 µM, first compound 0.0316 µM
[24] = second compound 1 µM, first compound 0.1 µM
[25] = second compound 0.00316 µM, first compound 0.316 µM
[26] = second compound 0.00316 µM, first compound 1 µM
[27] = second compound 0.01 µM, first compound 0.316 µM
[28] = second compound 0.01 µM, first compound 1 µM
[29] = second compound 0.0316 µM, first compound 0.316 µM
[30] = second compound 0.0316 µM, first compound 1 µM
[31] = second compound 0.1 µM, first compound 0.316 µM
[32] = second compound 0.1 µM, first compound 1 µM
[33] = second compound 0.316 µM, first compound 0.316 µM
[34] = second compound 0.316 µM, first compound 1 µM
[35] = second compound 1 µM, first compound 0.316 µM
[36] = second compound 1 µM, first compound 1 µM
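Note: spheroids exposed to agents for 7 days starting day 3 after seeding.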
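Throughout, for viability, T/C: percent of DMSO vehicle control viability with 100% = vehicle.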

With `Cn1ncnc1[C@H]1c2n[nH]c(=O)c3cc(F)cc(c23)N[C@@H]1c1ccc(F)cc1` + CNC(C)C(=O)NC1CN(S(=O)(=O)c2cccc(S(=O)(=O)N3CCC4CCC(C(=O)NC(c5ccccc5)c5ccccc5)N4C(=O)C(NC(=O)C(C)NC)C3)c2)CCC2CCC(C(=O)NC(c3ccccc3)c3ccccc3)N2C1=O the IC50 (second compound 0.00316 µM) was < 0.316 nM, the IC50 (second compound 0.01 µM) was > 100 nM and the IC50 (second compound 0.0316 µM) was > 100 nM. For the same molecule, the IC50 (second compound 0.1 µM) was > 100 nM, the IC50 (second compound 0.316 µM) was > 100 nM and the IC50 (second compound 1 µM) was > 100 nM. The viability, T/C (second compound 0.00316 µM, first compound 0.000316 µM) was 46.7%, the viability, T/C (second compound 0.00316 µM, first compound 0.001 µM) was 41.6% and the viability, T/C [1] was 38.5%. For the same molecule, the viability, T/C [2] was 46.7%, the viability, T/C [3] was 56.8% and the viability, T/C [4] was 45%. For the same molecule, the viability, T/C (second compound 0.01 µM, first compound 0.000316 µM) was 101%, the viability, T/C (second compound 0.01 µM, first compound 0.001 µM) was 101% and the viability, T/C [5] was 105%. It also gave a viability, T/C [6] of 89%, a viability, T/C [7] of 95.2% and a viability, T/C [8] of 89.1%. For the same molecule, the viability, T/C (second compound 0.0316 µM, first compound 0.000316 µM) was 102%, the viability, T/C (second compound 0.0316 µM, first compound 0.001 µM) was 94.8% and the viability, T/C [9] was 101%. The viability, T/C [10] was 88.9%, the viability, T/C [11] was 104% and the viability, T/C [12] was 104%. The viability, T/C (second compound 0.1 µM, first compound 0.000316 µM) was 93.4%, the viability, T/C (second compound 0.1 µM, first compound 0.001 µM) was 101% and the viability, T/C [13] was 97.2%. The viability, T/C [14] was 92.4%, the viability, T/C [15] was 103% and the viability, T/C [16] was 104%. The viability, T/C (second compound 0.316 µM, first compound 0.000316 µM) was 99.8%, the viability, T/C (second compound 0.316 µM, first compound 0.001 µM) was 93.5% and the viability, T/C [17] was 93.1%. The viability, T/C [18] was 88.1%, the viability, T/C [19] was 97% and the viability, T/C [20] was 99.7%. For the same molecule, the viability, T/C (second compound 1 µM, first compound 0.000316 µM) was 74.5%, the viability, T/C (second compound 1 µM, first compound 0.001 µM) was 72.2% and the viability, T/C [21] was 79.5%. For the same molecule, the viability, T/C [22] was 80.8%, the viability, T/C [23] was 87% and the viability, T/C [24] was 81.6%.
`O=C(c1cc(Cc2n[nH]c(=O)c3ccccc23)ccc1F)N1CCN(C(=O)C2CC2)CC1` + CNC(C)C(=O)NC1CN(S(=O)(=O)c2cccc(S(=O)(=O)N3CCC4CCC(C(=O)NC(c5ccccc5)c5ccccc5)N4C(=O)C(NC(=O)C(C)NC)C3)c2)CCC2CCC(C(=O)NC(c3ccccc3)c3ccccc3)N2C1=O was tested, and the IC50 (second compound 0.00316 µM) was 333 nM, the IC50 (second compound 0.01 µM) was > 10000 nM and the IC50 (second compound 0.0316 µM) was > 10000 nM. For the same molecule, the IC50 (second compound 0.1 µM) was > 10000 nM, the IC50 (second compound 0.316 µM) was > 10000 nM and the IC50 (second compound 1 µM) was > 10000 nM. It also gave a viability, T/C [3] of 54.7%, a viability, T/C [4] of 47.2% and a viability, T/C [25] of 49.1%. It also gave a viability, T/C [26] of 49.9%, a viability, T/C (second compound 0.00316 µM, first compound 3.16 µM) of 40.7% and a viability, T/C (second compound 0.00316 µM, first compound 10 µM) of 28.4%. For the same molecule, the viability, T/C [7] was 94.2%, the viability, T/C [8] was 86.3% and the viability, T/C [27] was 93.2%. The viability, T/C [28] was 96%, the viability, T/C (second compound 0.01 µM, first compound 3.16 µM) was 113% and the viability, T/C (second compound 0.01 µM, first compound 10 µM) was 104%. It also gave a viability, T/C [11] of 103%, a viability, T/C [12] of 96.2% and a viability, T/C [29] of 108%. For the same molecule, the viability, T/C [30] was 99.6%, the viability, T/C (second compound 0.0316 µM, first compound 3.16 µM) was 101% and the viability, T/C (second compound 0.0316 µM, first compound 10 µM) was 89.8%. It also gave a viability, T/C [15] of 99.8%, a viability, T/C [16] of 101% and a viability, T/C [31] of 99.2%. For the same molecule, the viability, T/C [32] was 96.5%, the viability, T/C (second compound 0.1 µM, first compound 3.16 µM) was 99.2% and the viability, T/C (second compound 0.1 µM, first compound 10 µM) was 102%. It also gave a viability, T/C [19] of 105%, a viability, T/C [20] of 103% and a viability, T/C [33] of 102%. It also gave a viability, T/C [34] of 94.8%, a viability, T/C (second compound 0.316 µM, first compound 3.16 µM) of 99% and a viability, T/C (second compound 0.316 µM, first compound 10 µM) of 91.1%. The viability, T/C [23] was 81.9%, the viability, T/C [24] was 78.3% and the viability, T/C [35] was 93.5%. The viability, T/C [36] was 85.1%, the viability, T/C (second compound 1 µM, first compound 3.16 µM) was 95.7% and the viability, T/C (second compound 1 µM, first compound 10 µM) was 65.4%.
Molecule `O=C(c1ccc(F)c(F)c1Nc1ccc(I)cc1F)N1CC(O)([C@@H]2CCCCN2)C1` + CNC(C)C(=O)NC1CN(S(=O)(=O)c2cccc(S(=O)(=O)N3CCC4CCC(C(=O)NC(c5ccccc5)c5ccccc5)N4C(=O)C(NC(=O)C(C)NC)C3)c2)CCC2CCC(C(=O)NC(c3ccccc3)c3ccccc3)N2C1=O has an IC50 (second compound 0.00316 µM) of 262 nM, an IC50 (second compound 0.01 µM) of 248 nM and an IC50 (second compound 0.0316 µM) of 253 nM. The IC50 (second compound 0.1 µM) was 228 nM, the IC50 (second compound 0.316 µM) was 141 nM and the IC50 (second compound 1 µM) was 124 nM. The viability, T/C [1] was 96.6%, the viability, T/C [2] was 77.4% and the viability, T/C [3] was 76.8%. It also gave a viability, T/C [4] of 67.9%, a viability, T/C [25] of 48.6% and a viability, T/C [26] of 16.2%. For the same molecule, the viability, T/C [5] was 99.5%, the viability, T/C [6] was 107% and the viability, T/C [7] was 87.7%. For the same molecule, the viability, T/C [8] was 61.9%, the viability, T/C [27] was 51% and the viability, T/C [28] was 25.6%. It also gave a viability, T/C [9] of 108%, a viability, T/C [10] of 95.6% and a viability, T/C [11] of 89.5%. The viability, T/C [12] was 63.5%, the viability, T/C [29] was 47.6% and the viability, T/C [30] was 27.1%. It also gave a viability, T/C [13] of 86.8%, a viability, T/C [14] of 98.3% and a viability, T/C [15] of 86.7%. The viability, T/C [16] was 61.6%, the viability, T/C [31] was 46.7% and the viability, T/C [32] was 17%. For the same molecule, the viability, T/C [17] was 89.8%, the viability, T/C [18] was 101% and the viability, T/C [19] was 69.8%. It also gave a viability, T/C [20] of 51.4%, a viability, T/C [33] of 46.8% and a viability, T/C [34] of 25%. The viability, T/C [21] was 72.2%, the viability, T/C [22] was 68% and the viability, T/C [23] was 68.2%. The viability, T/C [24] was 48.4%, the viability, T/C [35] was 39% and the viability, T/C [36] was 15.5%.
